The source of these data is US6147230A, “Amino acid dysiherbaine” (priority 1996, dated 2000).

Each structure is given as a SMILES string. Where two headings read alike, the source gives them in different places.

The target of one data set is AMPA receptors. In words: Radiobinding assay in rat brain synaptic membrane samples, [^3 H] AMPA (AMPA receptors). Format: binding. To be noted: [^3 H] AMPA 5 nM, 4° C., 1 hour; for IC50: 100 mM KSCN/50 mM Tris-acetate pH 7.4, read-out: IC50, inhibition of [^3 H] AMPA binding. The protocol:
(§1) Radiobinding assay in rat brain synaptic membrane samples
(§2) Rat brain synaptic membrane samples were prepared according to the described protocols (London, E. D., Coyle, J. T., Mol. Pharmacol. 1979, 15, 492; Murphy, D. E., Snowhill, E. W.; Williams, M., Neurochem. Res. 1987, 12, 775 and Murphy, D. E., Hutchison, A. J., Hurt, S. D., Williams, M., Sills, M. A., Br. J. Pharmacol. 1988, 95, 932). Radioligands and incubation conditions used in the binding assay as well as experimental results are as follows:
[Conditions]: ligand [^3 H] AMPA 5 nM; incubation medium 100 mM KSCN/50 mM Tris-acetate buffer (pH 7.4); incubation condition 4° C., 1 hour.

The subject of data set [1] is Glutamate receptors expressed in primary cultures of rat cerebral cortex neurocytes. In words: Electrophysiological evaluation (patch clamp whole cell) in primary cultures of rat cerebral cortex neurocytes. The format is cell-based. From the text:
Electrophysiological evaluation in primary cultures of rat cerebral cortex neurocytes
For orientation: Patch clamp records ionic current or voltage across a cell membrane.

The test system of a further data set is NMDA receptors. The data set is described as follows: Radiobinding assay in rat brain synaptic membrane samples, [^3 H] CGS-19755 (NMDA receptors). To be noted: [^3 H] CGS-19755 10 nM; 50 mM Tris-acetate pH 8.0; 4° C., 1 hour. The format is binding. The protocol: as §1, §2
[Conditions]: ligand [^3 H] CGS-19755 10 nM; incubation medium 50 mM Tris-acetate buffer (pH 8.0); incubation condition 4° C., 1 hour.

A further data set concerns the target KA receptors. In words: Radiobinding assay in rat brain synaptic membrane samples, [^3 H] kainic acid (KA receptors). The format is binding. To be noted: [^3 H] kainic acid 1 nM, 4° C., 1 hour; for IC50: 100 mM Tris-acetate pH 7.1, read-out: IC50, inhibition of [^3 H] kainic acid binding. Here is the method: as §1, §2
[Conditions]: ligand [^3 H] kainic acid 1 nM; incubation medium 100 mM Tris-acetate buffer (pH 7.1); incubation condition 4° C., 1 hour.

Another data set concerns DDY mouse. In words: Intraperitoneal administration to mice. The format is in vivo. The protocol: Intraperitoneal administration to mice
Compound (1) was diluted with purified water and intraperitoneally injected into a DDY mouse (male, 15 g).

A further data set concerns rats. To be noted: prior art statement; cited from earlier work.
Setting [2] is: inward current, patch clamp whole cell; cultures grown 10-21 days.
[3] abbreviates: read-out: EC50, inward current; patch clamp whole cell; cultures grown 10-21 days.

Broadly, the IC50 is the concentration that gives 50% inhibition. In general, EC50 refers to the concentration needed to bring the measured effect to its halfway point.

For the compound `Cc1onc(O)c1CC(N)C(=O)O` (stereo not drawn) [AMPA, α-amino-3-hydroxy-5-methyl-4-isoxazolepropionic acid], the IC50 at AMPA receptors stood at 5.6 ± 1.1 nM. This compound also returned a Max response in data set [1] (setting [2]) of 1.26 nA. The 50% effective concentration (EC50) in data set [1] (patch clamp whole cell; cultures grown 10-21 days; read-out: EC50, inward current) amounted to 4000 nM.

In the case of `N#Cc1cc2[nH]c(=O)c(=O)[nH]c2cc1[N+](=O)[O-]` [CNQX, 6-cyano-7-nitroquinoxaline-2,3-dione], in data set [1] (current induced by Compound (1)), the “inhibition of the current induced by Compound (1)” value was “significantly inhibited”.

Regarding `CNC1C(O)COC2CC(CC(N)C(=O)O)(C(=O)O)OC21` (centres unmarked) [Compound (1), dysiherbaine], on AMPA receptors, the half-inhibitory concentration (IC50) turned out to be 224 ± 22 nM. In addition, in the data set on AMPA receptors (pH 7.4), the “inhibition of [^3 H] AMPA binding to AMPA receptors” value is “concentration-dependently inhibited”. In addition, in data set [1] (compared with kainic acid), the “inward current compared with kainic acid” value is recorded as “stronger inward current than kainic acid”. The compound further had a Max response in data set [1] (setting [2]) of 1.40 nA. In addition, the “induction of inward current” value in data set [1] (patch clamp whole cell) is “concentration-dependently induced a strong inward current”. For the same compound, in data set [1] (setting [3]), the concentration for a half-maximal effect (EC50) is 4000 nM. Also, the “inhibition of [^3 H] CGS-19755 binding to NMDA receptors” value in the data set on NMDA receptors is on record as “did not inhibit”. On KA receptors, the IC50 worked out at 59 ± 7.8 nM. Moreover, in the data set on KA receptors (pH 7.1), the “inhibition of [^3 H] kainic acid binding to KA receptors” value is on record as “concentration-dependently inhibited”. Moreover, in the data set with DDY mouse (20 μg/kg i.p., male DDY mouse), the “behavioural effect, low dose” value is “repeat scratching on the flank” and the “duration of repeated scratching on the flank” value was in the range of 10 to 20 min. Further, in the data set with DDY mouse (1.3 mg/kg i.p., male DDY mouse), the “behavioural effect, moderate dose” value is “epileptoid spasm” and the “recovery, moderate dose” value was “recovered from this condition on the following day”. In the data set with DDY mouse (6.5 mg/kg i.p., male DDY mouse), the “effect, higher dose” value is given as “died in about 40 minutes after violent attack” and the time to death result is given as “about 40 minutes”. Also, in the data set with DDY mouse (compared with known KA agonist domoic acid), the “in vivo activity compared with domoic acid” value is given as “stronger in vivo activity than a known KA agonist domoic acid”.

For the compound `N[C@@H](CCC(=O)O)C(=O)O` [Glutamic acid, L-glutamic acid, reference compound], the concentration for half-maximal inhibition (IC50) stood at 124 ± 41 nM on AMPA receptors and 110 ± 18 nM on KA receptors.

On to `C=C(C)[C@H]1CN[C@H](C(=O)O)[C@H]1CC(=O)O` [Kainic acid, kainic acid], for which the Max response in data set [1] (setting [2]) is 1.31 nA. The 50% effective concentration (EC50) in data set [1] (setting [3]) came out at 40000 nM. Also, the “lesions and neuronal degeneration in rats” value in the data set with rats is “induces epileptoid lesions and neuronal degeneration in rats”. On KA receptors, the half-inhibitory concentration (IC50) is 4.3 ± 0.5 nM.
